Patent US20040157785A1, “Combination therapy comprising anti-diabetic and anticonvulsant agents” (priority 2000, published 2004)
Read-outs that look alike come from different tables or passages of the source.

Experiments:
[1] = tested on: patient with diabetes; experiment: Case Study C: topiramate added to Glucophage, DiaBeta and Rezulin in a diabetes patient; type: in vivo, human
Experimental: The ability of the compounds of formula I administered in combination with an anti-diabetic agent to treat Type II diabetes mellitus and Syndrome X is based on the following case studies. The patient was a person with an 8 year history of diabetes. Prior to treatment, patient's weight was 201 lbs, Hgb A1C was 9.3% and blood sugar was 309 mg/dl. Patient was taking Glucophage (metformin hydrochloride) at four 500 mg tablets/day (2 tablets in the morning, 1 tablet in the afternoon and 1 tablett at night, for a total of 2000 mg/day), DiaBeta (glyburide) at 10 mg twice a day (total of 20 mg/day) and Rezulin (troglitazone) at 200 mg/day. Patient was started on topiramate at 75 mg b.i.d (150 mg/day). […] After 15 months patient's weight was 190 lbs with blood sugars controlled on 100 mg topiramate in the morning, 200 mg topiramate at night (Total of 300 mg/day), DiaBeta at 10 mg twice a day and Rezulin at 200 mg once a day.

[2] = tested on: simple and complex partial seizures and secondarily generalized seizures; details: adjunctive therapy or monotherapy; cited from earlier work
[3] = tested on: patient with Type II diabetes; experiment: Case Study A: topiramate added to insulin (70/30) in a Type II diabetes patient; type: in vivo, human
Experimental: The ability of the compounds of formula I administered in combination with an anti-diabetic agent to treat Type II diabetes mellitus and Syndrome X is based on the following case studies. The patient was a person with a 6 year history of Type II diabetes. For the past four years the patient was being treated with insulin (70/30). At the start of treatment patient's weight was 236 lbs, measured cholesterol was 316 mg/dl and measured glucose was 166 mg/dl. The patient was started on Topiramate for treatment of seizures and titrated to 75 mg a day. […] After 16 months, patient's fasting glucose was 89 mg/dl.

[4] = tested on: patient with elevated blood sugars; experiment: Case Study D: topiramate with Amaryl (glimepiride) in a patient with elevated blood sugars; type: in vivo, human
Experimental: The ability of the compounds of formula I administered in combination with an anti-diabetic agent to treat Type II diabetes mellitus and Syndrome X is based on the following case studies. The patient was a person, with a history of elevated blood sugars and a weight of 188 lbs. At the time of initial treatment, patient's blood sugar was 426 mg/dl. Patient was started on topiramate, titrated to 100 mg once a day. The patient was also prescribed […] (glimepiride). After 3 months, patient's blood sugar averaged in the upper 100s, lab sugars measured at 138 mg/dl, cholesterol at 278 mg/dl, triglycerides at 212 mg/dl and HgbA1C at 6.7%. […] Patient weighed 160 lbs. Patient was able to stop taking the […] due to improved sugar control. Due to concerns about weight loss, topiramate was decreased to 100 mg/day. After 21 months, patient's weight was 170 lbs, blood sugars were reported doing well. Lab measured glucose was 115 mg/dl, cholesterol was measured at 236 mg/dl, triglycerides at 106 mg/dl and HgbA1C at 5.7%.

[5] = tested on: markers of diabetes mellitus; experiment: Summary of the case studies: topiramate in combination with an anti-diabetic agent; type: in vivo, human; details: oral administration in combination with an anti-diabetic agent
[6] = tested on: patient with Type II diabetes; experiment: Case Study B: topiramate added to Glucotrol (glipizide) in a Type II diabetes patient; type: in vivo, human
Experimental: The ability of the compounds of formula I administered in combination with an anti-diabetic agent to treat Type II diabetes mellitus and Syndrome X is based on the following case studies. The patient was a person with a 5 year history of Type II diabetes. At the start of treatment, patient was taking 40 mg/day Glucotrol (glipizide, a sulfonylurea) and weighed 293 lbs. The patient was titrated on topiramate to 50 mg/day. After 1 month of treatment, patient reported that home measured blood sugars had dropped from a baseline of 300 mg/dl to measured blood sugars of 140 mg/dl. After 2 months, the patient indicated average blood sugar levels of 80-140 mg/dl and weight loss to 272 lbs.

[7] = tested on: seizures; details: several rodent models of epilepsy; cited from earlier work
[8] = tested on: seizures; details: animal model of kindled epilepsy; cited from earlier work
[9] = after 3 months, topiramate 100 mg once a day with Amaryl
[10] = after 3 months, topiramate 100 mg once a day with Amaryl, initial 426 mg/dl
[11] = after 21 months, topiramate 100 mg/day, Amaryl stopped
[12] = after one year, topiramate increased to 200 mg/day

In the case of `CC1(C)O[C@@H]2[C@@H](CO[C@@]3(COS(N)(=O)=O)OC(C)(C)O[C@@H]23)O1` [topiramate, 2,3:4,5-bis-O-(1-methylethylidene)-β-D-fructopyranose sulfamate], the “patient's weight” value ([1]; after 15 months, topiramate 300 mg/day with DiaBeta and Rezulin, prior 201 lbs) is reported as 190 lbs, the blood sugars ([1]; after 15 months, topiramate 300 mg/day, DiaBeta 10 mg twice a day, Rezulin 200 mg once a day) is reported as “controlled” and the “blood sugars (patient indicated)” value ([1]; topiramate 75 mg b.i.d (150 mg/day) with Glucophage, DiaBeta, Rezulin, prior blood sugar 309 mg/dl) is reported as “doing better”. For the same molecule, the “need for Glucophage (sugar control)” value ([1]; topiramate 150 mg b.i.d (300 mg/day) with DiaBeta and Rezulin) was “able to stop Glucophage”, the “efficacy in treating simple and complex partial seizures and secondarily generalized seizures” value [2] was “effective” and the “blood sugar (patient indicated)” value ([3]; after 2 months, topiramate 75 mg a day with insulin (70/30), using the insulin less often) was “improved significantly”. The fasting glucose ([3]; after 16 months, with insulin (70/30), glucose at start 166 mg/dl) was 89 mg/dL, the “home measured blood sugars” value ([3]; after 18 months, with insulin (70/30), previously 150 to 160 mg/dl) was “less than 120 mg/dl” and the “Hbg A1C” value ([3]; after one year, topiramate 200 mg b.i.d. with insulin (70/30)) was 6.94%. For the same molecule, the “patient's weight” value ([3]; after one year, topiramate 200 mg b.i.d. with insulin (70/30), start 236 lbs) was 225 lbs, the HgbA1C [4, 9] was 6.7% and the cholesterol [4, 9] was 278 mg/dL. The triglycerides [4, 9] was 212 mg/dL, the blood sugar averaged [4, 10] was “upper 100s” and the lab sugars [4, 10] was 138 mg/dL. For the same molecule, the HgbA1C [4, 11] was 5.7%, the “blood sugars (reported)” value [4, 11] was “doing well” and the cholesterol [4, 11] was 236 mg/dL. The lab measured glucose [4, 11] was 115 mg/dL, the “patient's weight” value [4, 11] was 170 lbs and the triglycerides [4, 11] was 106 mg/dL. The “need for Amaryl (sugar control)” value ([4]; after one year, topiramate 200 mg/day) was “able to stop taking the Amaryl”, the patient weight ([4]; after one year, topiramate 200 mg/day, start 188 lbs) was 160 lbs and the cholesterol [4, 12] was 200 mg/dL. For the same molecule, the “lab measured blood sugars” value [4, 12] was 141 mg/dL, the triglycerides [4, 12] was 500 mg/dL and the “status of markers of diabetes mellitus (blood glucose, glycosylated hemoglobin, triglyceride levels)” value [5] was “consistently improved”. For the same molecule, the “home measured blood sugars” value ([6]; after 1 month, topiramate 50 mg/day with Glucotrol 40 mg/day, baseline 300 mg/dl) was 140 mg/dL, the “average blood sugar levels” value ([6]; after 2 months, topiramate 50 mg/day with Glucotrol 40 mg/day) was 80 to 140 mg/dL and the weight ([6]; after 2 months, topiramate 50 mg/day with Glucotrol, start 293 lbs) was 272 lbs. For the same molecule, the seizure block [7] was “effectively block seizures” and the seizure block [8] was “effectively block seizures”.
